Data taken from US11365192B2, “Pyridine compound substituted with azole” (TAISHO PHARMACEUTICAL CO., LTD., priority 2017, dated 2022).

Experiments:
human CYP4F2 = human CYP4F2 (Homo sapiens (Human), UniProt P78329); experiment: Inhibition test against 20-HETE producing enzyme CYP4F2 (luciferine derivative, luminescence); type: biochemical; conditions: E. coli membrane fraction expressing human CYP4F2, 2.5 μM luciferine derivative, room temperature 60 minutes
Protocol: (§1) (1) Inhibition Test for Each Compound of the Present Invention Against 20-HETE Producing Enzymes (CYP4F2 and CYP4A11)
(§2) In the CYP4F2 inhibition test, the reaction solution containing each compound [final concentration of 50 mM, KPO4 (pH 7.4), 2.5 μM luciferine derivative, and 1 mM NADPH] was added to an Escherichia coli membrane fraction (100 μg/mL protein) in which human CYP4F2 had been expressed. In the CYP4A11 inhibition test, the reaction solution containing each compound [final concentration of 100 mM, Tris-HCl (pH 7.5), 60 μM luciferine derivative, 1.3 mM NADP^+, 3.3 mM Glucose 6-Phosphate, 3.3 mM MgCl2, and 0.4 U/mL Glucose 6-Phosphate dehydrogenase] was added to an Escherichia coli membrane fraction (100 μg/mL protein) in which human CYP4A11 had been expressed. Following this, the membrane fraction was left to stand at room temperature for 60 minutes to perform an enzymatic reaction. After the reaction, a luciferine detection reagent was added, and the luminescence value was measured using a plate reader. By using that value, the percent inhibition of 20-HETE producing enzyme (%) was calculated according to the equation described below, and the 50% inhibitory concentration (IC50 value) for each compound was calculated. Percent inhibition of 20-HETE producing enzyme (%)=[1−(A−B)/(C−B)]*100
(§3) A: Luminescence value with addition of compound
(§4) B: Luminescence value without addition of compound and enzyme

human CYP4A11 = human CYP4A11 (Homo sapiens (Human), UniProt Q02928); experiment: Inhibition test against 20-HETE producing enzyme CYP4A11 (luciferine derivative, luminescence); type: biochemical; conditions: E. coli membrane fraction expressing human CYP4A11, 60 μM luciferine derivative, room temperature 60 minutes
Chain of human CYP4A11 (Q02928 5-519): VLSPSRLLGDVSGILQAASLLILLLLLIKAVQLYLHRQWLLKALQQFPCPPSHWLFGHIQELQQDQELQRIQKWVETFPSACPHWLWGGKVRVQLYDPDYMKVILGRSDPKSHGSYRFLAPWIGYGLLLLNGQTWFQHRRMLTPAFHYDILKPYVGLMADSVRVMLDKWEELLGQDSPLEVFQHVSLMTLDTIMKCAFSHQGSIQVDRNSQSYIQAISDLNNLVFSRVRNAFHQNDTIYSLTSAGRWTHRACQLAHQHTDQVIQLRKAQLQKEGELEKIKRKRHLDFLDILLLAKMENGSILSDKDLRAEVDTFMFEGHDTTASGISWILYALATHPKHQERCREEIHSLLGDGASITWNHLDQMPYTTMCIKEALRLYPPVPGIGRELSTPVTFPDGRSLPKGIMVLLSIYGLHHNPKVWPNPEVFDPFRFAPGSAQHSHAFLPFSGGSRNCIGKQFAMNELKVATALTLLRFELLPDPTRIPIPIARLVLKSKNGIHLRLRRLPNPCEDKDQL
Protocol: as §1, §2, §3, §4

Chain of human CYP4F2 (P78329 5-520): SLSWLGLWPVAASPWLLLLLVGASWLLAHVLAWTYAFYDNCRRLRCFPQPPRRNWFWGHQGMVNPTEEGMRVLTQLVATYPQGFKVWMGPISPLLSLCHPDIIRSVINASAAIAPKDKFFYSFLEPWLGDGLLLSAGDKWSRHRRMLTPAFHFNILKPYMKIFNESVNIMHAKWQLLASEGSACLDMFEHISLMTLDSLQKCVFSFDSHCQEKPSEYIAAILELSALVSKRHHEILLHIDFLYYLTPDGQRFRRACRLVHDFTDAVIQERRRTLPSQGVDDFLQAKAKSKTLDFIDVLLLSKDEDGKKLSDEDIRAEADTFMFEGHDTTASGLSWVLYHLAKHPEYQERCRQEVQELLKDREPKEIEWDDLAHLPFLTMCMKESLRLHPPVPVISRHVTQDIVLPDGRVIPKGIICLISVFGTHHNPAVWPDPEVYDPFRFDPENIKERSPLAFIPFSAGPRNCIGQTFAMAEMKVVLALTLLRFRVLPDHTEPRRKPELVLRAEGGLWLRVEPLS

Row | IC50 (human CYP4F2) | IC50 (human CYP4A11) | SMILES
1 | 5000 nM | 100 nM | O=C(O)Cn1cc(CCCCOc2ccc(-c3ccn[nH]3)nc2)cn1 [Example 8-12]
2 | 8300 nM | 120 nM | CC(C)(C(=O)O)n1cc(CCCCOc2ccc(-c3ccn[nH]3)nc2)cn1 [Example 8-13]
3 | 11000 nM | 68 nM | CC(C)(C(=O)O)n1ccc(CCCCOc2ccc(-c3ccn[nH]3)nc2)n1 [Example 8-14]
4 | 1400 nM | 530 nM | O=C(O)Cn1ccc(CCCCOc2ccc(-c3ccn[nH]3)nc2)cc1=O [Example 8-15]
5 | 680 nM | 750 nM | O=C(O)Cc1cccc(COc2ccc(-c3ccn[nH]3)nc2)n1 [Example 8-16]
6 | 22000 nM | 520 nM | O=C(O)C12CC(COc3ccc(-c4ccn[nH]4)nc3)(C1)C2 [Example 8-17]
7 | 16000 nM | 52 nM | O=C(O)C12CCC(COc3ccc(-c4ccn[nH]4)nc3)(CC1)CC2 [Example 8-18]
8 | 1100 nM | 1800 nM | CC(C)(OCCCCOCCCCOc1ccc(-c2ccn[nH]2)nc1)C(=O)O [Example 9-2]
9 | 490 nM | 1400 nM | CC(C)(OCCCOCCCCOc1ccc(-c2ccn[nH]2)nc1)C(=O)O [Example 9-3]
10 | 19000 nM | 560 nM | O=C(O)CCCCOc1ccc(-c2ccn[nH]2)nc1 [Example 10-1, 5-[[6-(1H-Pyrazol-5-yl)-3-pyridinyl]oxy]pentanoic Acid]
11 | 1100 nM | 23 nM | O=C(O)COc1cccc(COc2ccc(-c3ccn[nH]3)nc2)c1 [Example 10-2, 2-[3-[[6-(1H-Pyrazol-5-yl)-3-pyridinyl]oxymethyl]phenoxy]acetic Acid]
12 | 5.1 nM | 140 nM | Oc1cc(CCCOc2ccc(-c3ccn[nH]3)nc2)cc(F)c1F [Example 11-1, 2,3-Difluoro-5-[3-[[6-(1H-pyrazol-5-yl)-3-pyridinyl]oxy]propyl]phenol]
13 | 19 nM | 520 nM | Oc1cccc(CCCOc2ccc(-c3ccn[nH]3)nc2)c1 [Example 11-2]
14 | 7.3 nM | 270 nM | Oc1cc(CCCOc2ccc(-c3ccn[nH]3)nc2)ccc1F [Example 11-3]
15 | 1300 nM | 4500 nM | NS(=O)(=O)CCCCCOc1ccc(-c2ccn[nH]2)nc1 [Example 11-4, 5-[[6-(1H-Pyrazol-5-yl)-3-pyridinyl]oxy]-1-pentanesulfonamide]
16 | 6.2 nM | 260 nM | Cc1ccc(COc2ccc(-c3ccn[nH]3)nc2)cc1O [Example 12-1, 2-Methyl-5-[[6-(1H-pyrazol-5-yl)-3-pyridinyl]oxymethyl]phenol]
17 | 11 nM | 310 nM | Oc1cc(COc2ccc(-c3ccn[nH]3)nc2)ccc1F [Example 12-2]
18 | 25 nM | 290 nM | Oc1cc(F)cc(COc2ccc(-c3ccn[nH]3)nc2)c1 [Example 12-3]
19 | 34 nM | 610 nM | Oc1cccc(COc2ccc(-c3ccn[nH]3)nc2)c1 [Example 13-1, 3-[[6-(1H-Pyrazol-5-yl)-3-pyridinyl]oxymethyl]phenol]
20 | 13 nM | 400 nM | Oc1ccccc1CCOc1ccc(-c2ccn[nH]2)nc1 [Example 13-2]
21 | 19 nM | 300 nM | Oc1cccc(CCOc2ccc(-c3ccn[nH]3)nc2)c1 [Example 13-3]

Row | IC50 (human CYP4F2) | IC50 (human CYP4A11) | SMILES
22 | 2200 nM | 30 nM | O=C(O)CCS(=O)(=O)c1cccc(COc2ccc(-c3ccn[nH]3)nc2)c1 [Example 14-1, 3-[3-[[6-(1H-Pyrazol-5-yl)-3-pyridinyl]oxymethyl]phenyl]sulfonylpropanoic Acid]
23 | 25000 nM | 690 nM | O=C(O)c1cnn(CCCOc2ccc(-c3ccn[nH]3)nc2)c1 [Example 15-2, 1-[3-[[6-(1H-Pyrazol-5-yl)-3-pyridinyl]oxy]propyl]-4-pyrazolecarboxylic Acid]
24 | 6300 nM | 130 nM | O=C(O)c1cnn(CCCCOc2ccc(-c3ccn[nH]3)nc2)c1 [Example 15-3]
25 | 1400 nM | 53 nM | O=C(O)Cn1ncc2cc(COc3ccc(-c4ccn[nH]4)nc3)ccc21 [Example 16-1, 2-[5-[[6-(1H-Pyrazol-5-yl)-3-pyridinyl]oxymethyl]-1-indazolyl]acetic Acid]
26 | 180 nM | 1400 nM | CC(C)(C(=O)O)C(=O)N1CCc2ccc(COc3ccc(-c4ccn[nH]4)nc3)cc2C1 [Example 17-1, 2,2-Dimethyl-3-oxo-3-[7-[[6-(1H-pyrazol-5-yl)-3-pyridinyl]oxymethyl]-3,4-dihydro-1H-isoquinolin-2-yl]propanoic Acid]
27 | 460 nM | 13 nM | O=C(O)c1cccc(-c2cccc(COc3ccc(-c4ccn[nH]4)nc3)c2)n1 [Example 18-1, 6-[3-[[6-(1H-Pyrazol-5-yl)-3-pyridinyl]oxymethyl]phenyl]-2-pyridinecarboxylic Acid]
28 | 230 nM | 12 nM | O=C(O)c1ccc(-c2cccc(COc3ccc(-c4ccn[nH]4)nc3)c2)nc1 [Example 18-2]
29 | 510 nM | 24 nM | O=C(O)c1cncc(-c2cccc(COc3ccc(-c4ccn[nH]4)nc3)c2)n1 [Example 18-3]
30 | 490 nM | 22 nM | O=C(O)c1cnc(-c2cccc(COc3ccc(-c4ccn[nH]4)nc3)c2)cn1 [Example 18-4]
31 | 5200 nM | 32 nM | CC(C)(Oc1cccc(COc2ccc(-c3ccn[nH]3)nc2)c1)C(=O)O [Example 18-5]
32 | 6100 nM | 310 nM | O=C(O)c1cccc(OCCOc2ccc(-c3ccn[nH]3)nc2)c1 [Example 18-6]
33 | 22 nM | 1700 nM | CS(=O)(=O)NCCCCCCOc1ccc(-c2ccn[nH]2)nc1 [Example 19-1, N-[6-[[6-(1H-Pyrazol-5-yl)-3-pyridinyl]oxy]hexyl]methanesulfonamide]
34 | 1100 nM | 28000 nM | CS(=O)(=O)c1cc(COc2ccc(-c3ccn[nH]3)nc2)ccc1O [Example 20-1, 2-Methylsulfonyl-4-[[6-(1H-pyrazol-5-yl)-3-pyridinyl]oxymethyl]phenol]
35 | 69 nM | 210 nM | CS(=O)(=O)c1cc(O)cc(COc2ccc(-c3ccn[nH]3)nc2)c1 [Example 20-2]
36 | 15000 nM | 43 nM | O=C(O)Cc1ccc(COc2ccc(-c3ccn[nH]3)nc2)cc1 [Example 21-1, 2-[4-[[6-(1H-Pyrazol-5-yl)-3-pyridinyl]oxymethyl]phenyl]acetic Acid]
37 | > 50000 nM | 3800 nM | O=C(O)Cc1ccccc1COc1ccc(-c2ccn[nH]2)nc1 [Example 21-2]
38 | 21000 nM | 16 nM | O=C(O)C1(c2cccc(COc3ccc(-c4ccn[nH]4)nc3)c2)CC1 [Example 21-3]
39 | 1500 nM | 25 nM | CC(C)(CCNS(=O)(=O)c1cccc(COc2ccc(-c3ccn[nH]3)nc2)c1)C(=O)O [Example 21-4]
40 | 430 nM | 29 nM | CN(CCC(C)(C)C(=O)O)S(=O)(=O)c1cccc(COc2ccc(-c3ccn[nH]3)nc2)c1 [Example 21-5]
41 | 140 nM | 15 nM | O=C(O)/C=C/c1cccc(COc2ccc(-c3ccn[nH]3)nc2)c1 [Example 22-1, (2E)-3-[3-[[[6-(1H-Pyrazol-5-yl)pyridin-3-yl]oxy]methyl]phenyl]-2-propenoic Acid]
42 | 1400 nM | 42 nM | O=C(O)c1cccc(COc2ccc(-c3ccn[nH]3)nc2)c1 [Example 22-2]
